The NIST ThermoML archive (doi:10.1007/s10765-010-0766-0)
± gives the expanded uncertainty stated by the source.

Assay: molar heat capacity at constant volume; wn = mass fraction of the nth substance listed
Conditions: Liquid, Vacuum adiabatic calorimetry, w2 = 0.4981

FC(F)C(F)(F)F [pentafluoroethane] + FCF
Conditions	molar heat capacity at constant volume [J/K/mol]
357.15 K, 9042 kPa	82.22 ± 3.7
357.15 K, 9048 kPa	82.43 ± 3.7
357.15 K, 16243 kPa	68.41 ± 3.1
357.15 K, 16254 kPa	69.93 ± 3.1
357.15 K, 16277 kPa	69.42 ± 3.1
358.15 K, 9284 kPa	81.71 ± 3.7
358.15 K, 9290 kPa	83.6 ± 3.8
358.15 K, 16617 kPa	69.79 ± 3.1
358.15 K, 16628 kPa	70.73 ± 3.2
358.15 K, 16652 kPa	69.13 ± 3.1
359.15 K, 9527 kPa	82.29 ± 3.7
359.15 K, 9532 kPa	83.09 ± 3.8
359.15 K, 16990 kPa	69.86 ± 3.1
359.15 K, 17003 kPa	71.24 ± 3.2
359.15 K, 17027 kPa	67.9 ± 3.1
360.15 K, 9770 kPa	82.07 ± 3.7
360.15 K, 9775 kPa	82.29 ± 3.7
360.15 K, 17365 kPa	69.42 ± 3.1
360.15 K, 17377 kPa	68.55 ± 3.1
360.15 K, 17401 kPa	69.64 ± 3.1
361.15 K, 10013 kPa	81.2 ± 3.6
361.15 K, 10019 kPa	82.73 ± 3.7
361.15 K, 17739 kPa	70.08 ± 3.3
361.15 K, 17752 kPa	71.46 ± 3.2
361.15 K, 17776 kPa	68.48 ± 3.2
362.15 K, 10256 kPa	82.65 ± 3.7
362.15 K, 10262 kPa	83.31 ± 3.8
362.15 K, 18113 kPa	69.42 ± 3.1
362.15 K, 18127 kPa	71.17 ± 3.2
362.15 K, 18151 kPa	69.06 ± 3.1
363.15 K, 10501 kPa	80.69 ± 3.6
363.15 K, 10506 kPa	82.22 ± 3.7
363.15 K, 18487 kPa	70.59 ± 3.2
363.15 K, 18501 kPa	69.57 ± 3.2
363.15 K, 18526 kPa	69.79 ± 3.2
364.15 K, 10745 kPa	81.78 ± 3.7
364.15 K, 10751 kPa	81.56 ± 3.7
364.15 K, 18862 kPa	69.2 ± 3.1
364.15 K, 18876 kPa	70.8 ± 3.2
364.15 K, 18899 kPa	68.91 ± 3.1
365.15 K, 10990 kPa	81.49 ± 3.7
365.15 K, 10996 kPa	82.29 ± 3.7
365.15 K, 19236 kPa	69.57 ± 3.1
365.15 K, 19250 kPa	69.79 ± 3.1
365.15 K, 19274 kPa	70.08 ± 3.2
366.15 K, 11235 kPa	80.04 ± 3.6
366.15 K, 11241 kPa	81.78 ± 3.7
366.15 K, 19610 kPa	70 ± 3.2
366.15 K, 19625 kPa	70.22 ± 3.2
366.15 K, 19649 kPa	68.99 ± 3.1
367.15 K, 11480 kPa	81.49 ± 3.7
367.15 K, 11486 kPa	81.93 ± 3.7
367.15 K, 19985 kPa	69.06 ± 3.1
367.15 K, 20000 kPa	69.86 ± 3.1
367.15 K, 20025 kPa	68.48 ± 3.1
368.15 K, 11726 kPa	81.42 ± 3.6
368.15 K, 11732 kPa	82.07 ± 3.7
368.15 K, 20360 kPa	69.35 ± 3.1
368.15 K, 20375 kPa	69.71 ± 3.1
368.15 K, 20400 kPa	68.77 ± 3.1
369.15 K, 11972 kPa	79.89 ± 3.6
369.15 K, 11979 kPa	82.73 ± 3.7
369.15 K, 20734 kPa	69.42 ± 3.1
369.15 K, 20750 kPa	70 ± 3.1
369.15 K, 20776 kPa	68.7 ± 3.1
370.15 K, 12219 kPa	80.69 ± 3.6
370.15 K, 12225 kPa	80.76 ± 3.6
370.15 K, 21109 kPa	70.8 ± 3.2
370.15 K, 21125 kPa	69.35 ± 3.1
370.15 K, 21150 kPa	69.2 ± 3.1
371.15 K, 12465 kPa	80.25 ± 3.6
371.15 K, 12472 kPa	82.07 ± 3.7
371.15 K, 21484 kPa	70.3 ± 3.2
371.15 K, 21500 kPa	71.82 ± 3.4
371.15 K, 21525 kPa	68.55 ± 3.1
372.15 K, 12712 kPa	80.11 ± 3.6
372.15 K, 12719 kPa	81.78 ± 3.7
372.15 K, 21859 kPa	70.44 ± 3.2
372.15 K, 21875 kPa	69.64 ± 3.1
372.15 K, 21901 kPa	69.42 ± 3.1
373.15 K, 12959 kPa	80.91 ± 3.6
373.15 K, 12966 kPa	82.43 ± 3.7
373.15 K, 22234 kPa	69.86 ± 3.1
373.15 K, 22250 kPa	71.17 ± 3.3
373.15 K, 22277 kPa	69.57 ± 3.1
374.15 K, 13207 kPa	80.11 ± 3.6
374.15 K, 13213 kPa	81.71 ± 3.7
374.15 K, 22609 kPa	70.59 ± 3.2
374.15 K, 22625 kPa	70.37 ± 3.2
374.15 K, 22654 kPa	69.2 ± 3.1
375.15 K, 13454 kPa	80.04 ± 3.6
375.15 K, 13461 kPa	81.85 ± 3.7
375.15 K, 22984 kPa	71.68 ± 3.3
375.15 K, 23000 kPa	72.33 ± 3.3
375.15 K, 23029 kPa	70.15 ± 3.2
376.15 K, 13702 kPa	80.76 ± 3.6
376.15 K, 13709 kPa	82.87 ± 3.7
376.15 K, 23359 kPa	71.6 ± 3.3
376.15 K, 23375 kPa	71.02 ± 3.2
376.15 K, 23406 kPa	70.08 ± 3.2
377.15 K, 13950 kPa	82.14 ± 3.7
377.15 K, 13957 kPa	81.34 ± 3.6
377.15 K, 23734 kPa	71.24 ± 3.2
377.15 K, 23750 kPa	71.6 ± 3.2
377.15 K, 23780 kPa	70.88 ± 3.2
378.15 K, 14198 kPa	80.25 ± 3.6
378.15 K, 14205 kPa	80.18 ± 3.6
378.15 K, 24109 kPa	72.04 ± 3.3
378.15 K, 24125 kPa	71.82 ± 3.3
378.15 K, 24155 kPa	70.51 ± 3.2
379.15 K, 14447 kPa	81.2 ± 3.6
379.15 K, 14454 kPa	81.85 ± 3.7
379.15 K, 24484 kPa	72.04 ± 3.3
379.15 K, 24500 kPa	70.95 ± 3.2
379.15 K, 24531 kPa	70.22 ± 3.2
380.15 K, 14696 kPa	80.47 ± 3.6
380.15 K, 14702 kPa	80.84 ± 3.6
380.15 K, 24858 kPa	72.11 ± 3.3
380.15 K, 24875 kPa	71.6 ± 3.2
380.15 K, 24906 kPa	70.88 ± 3.2
381.15 K, 14944 kPa	80.54 ± 3.6
381.15 K, 14951 kPa	81.93 ± 3.7
381.15 K, 25233 kPa	72.33 ± 3.3
381.15 K, 25250 kPa	71.6 ± 3.3
381.15 K, 25282 kPa	68.91 ± 3.1
382.15 K, 15194 kPa	81.2 ± 3.6
382.15 K, 15200 kPa	81.2 ± 3.6
382.15 K, 25608 kPa	70.51 ± 3.2
382.15 K, 25625 kPa	71.75 ± 3.3
382.15 K, 25657 kPa	69.64 ± 3.1
383.15 K, 15443 kPa	80.18 ± 3.6
383.15 K, 15449 kPa	81.13 ± 3.6
383.15 K, 25983 kPa	72.33 ± 3.3
383.15 K, 26000 kPa	71.75 ± 3.3
383.15 K, 26033 kPa	69.93 ± 3.2
384.15 K, 15692 kPa	82.29 ± 3.7
384.15 K, 15699 kPa	80.62 ± 3.6
384.15 K, 26358 kPa	72.69 ± 3.3
384.15 K, 26375 kPa	72.84 ± 3.3
384.15 K, 26408 kPa	70 ± 3.2
385.15 K, 15942 kPa	79.6 ± 3.6
385.15 K, 15948 kPa	82.58 ± 3.7
385.15 K, 26733 kPa	72.55 ± 3.3
385.15 K, 26750 kPa	72.4 ± 3.3
385.15 K, 26784 kPa	69.28 ± 3.2
386.15 K, 16192 kPa	81.2 ± 3.6
386.15 K, 16198 kPa	83.09 ± 3.8
386.15 K, 27107 kPa	72.4 ± 3.3
386.15 K, 27125 kPa	72.77 ± 3.4
386.15 K, 27159 kPa	68.48 ± 3.1
387.15 K, 16442 kPa	79.31 ± 3.6
387.15 K, 16448 kPa	81.34 ± 3.6
387.15 K, 27482 kPa	73.57 ± 3.3
387.15 K, 27500 kPa	73.57 ± 3.4
387.15 K, 27533 kPa	70.66 ± 3.2
388.15 K, 16692 kPa	80.62 ± 3.6
388.15 K, 16698 kPa	82.51 ± 3.7
388.15 K, 27856 kPa	73.71 ± 3.4
388.15 K, 27874 kPa	73.71 ± 3.5
388.15 K, 27907 kPa	69.06 ± 3.2
389.15 K, 16942 kPa	80.76 ± 3.6
389.15 K, 16948 kPa	82.07 ± 3.7
389.15 K, 28231 kPa	74.08 ± 3.4
389.15 K, 28249 kPa	73.86 ± 3.4
389.15 K, 28282 kPa	70.22 ± 3.2
390.15 K, 17192 kPa	80.84 ± 3.6
390.15 K, 17198 kPa	83.74 ± 3.8
390.15 K, 28605 kPa	74.08 ± 3.4
390.15 K, 28624 kPa	74.73 ± 3.6
390.15 K, 28657 kPa	70.3 ± 3.2
391.15 K, 17442 kPa	81.05 ± 3.6
391.15 K, 17448 kPa	83.67 ± 3.8
391.15 K, 28979 kPa	73.78 ± 3.3
391.15 K, 28998 kPa	72.77 ± 3.3
391.15 K, 29032 kPa	70.44 ± 3.2
392.15 K, 17692 kPa	81.05 ± 3.6
392.15 K, 17698 kPa	81.34 ± 3.6
392.15 K, 29354 kPa	72.77 ± 3.3
392.15 K, 29373 kPa	71.31 ± 3.3
392.15 K, 29407 kPa	68.84 ± 3.1
393.15 K, 17943 kPa	79.38 ± 3.6
393.15 K, 17949 kPa	81.27 ± 3.6
393.15 K, 29728 kPa	74 ± 3.3
393.15 K, 29782 kPa	72.19 ± 3.3
394.15 K, 18193 kPa	82 ± 3.7
394.15 K, 18199 kPa	80.84 ± 3.6
395.15 K, 18444 kPa	80.18 ± 3.6
395.15 K, 18450 kPa	83.89 ± 3.8
396.15 K, 18701 kPa	80.62 ± 3.6
397.15 K, 18951 kPa	82.36 ± 3.7
